Data on 14 molecules can be found in US20230233569A1 (Revolution Medicines, Inc., priority 2020, published 2023).

As a reminder, the pIC50 is the negative decadic logarithm of the IC50, by convention in mol/L. As a reminder, the pEC50 is the EC50 on a negative log10 scale, so that one unit is a factor of ten.

For one experiment, the system named is NCI-H358 (K-Ras G12C). The experiment can be described thus: CellTiter-Glo cell viability assay, 5-day treatment. The class given is cell-based. The conditions noted are these: Homo sapiens, NCI-H358, H358, K-Ras G12C; read-out: Additional H358 Cell Viability assay data (K-Ras G12C, IC50). A digest of the protocol: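 Luminescence read-out after 5 days of compound exposure, with plates first brought to room temperature for roughly 30 minutes. Values are percent of averaged DMSO wells, fitted by four-parameter logistic regression.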
(In general: In ATP-based viability assays light output follows the ATP content of the culture.)

Experiment [1] has as its system K-Ras G12C (NCI-H358 cells). Kind of experiment: Potency assay: pERK (AlphaLISA SureFire or In-Cell Western). The class given is cell-based. The conditions noted are these: Homo sapiens, NCI-H358; H358 KRAS G12C; read-out: pERK EC50. A digest of the protocol:
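Cellular pERK decrease measured after 4 h compound exposure (37 °C, 5% CO2) of NCI-H358 cells, 10-point 3-fold series from 10 mM DMSO stock, duplicates. Detection either by In-Cell Western (IR-800CW secondary, DRAQ5 stain) or AlphaLISA SureFire Ultra p-ERK1/2; 4-parameter sigmoidal fit gave IC50.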

Another experiment addresses NRAS Q61K (Homo sapiens, UniProt P01111+P62937, Q61K). Kind of experiment: Disruption of BRAF RBD interaction with Ras (FRET / MOA assay, with Cyclophilin A). The class given is biochemical. The conditions noted are these: NRAS Q61K; read-out: NRAS Q61K FRET data IC50. The method in brief:
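IC50 reflects compound-driven Ras:Cyclophilin A ternary complex displacing BRAF RBD, read as lowered TR-FRET ratio relative to DMSO after Eu anti-His (10 nM) and APC anti-GST (50 nM) detection for 1.5 h. Prior incubation 3 h, 25° C, with 12.5 nM GMPPNP-loaded Ras, 50 nM BRAF RBD, 25 μM Cyclophilin A; top compound 30 μM.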

SMILES strings stand for the structures. pEC50, pIC50: −log10 of the molar value.

NRAS Q61K, sequence (P01111 whole entry Q61K): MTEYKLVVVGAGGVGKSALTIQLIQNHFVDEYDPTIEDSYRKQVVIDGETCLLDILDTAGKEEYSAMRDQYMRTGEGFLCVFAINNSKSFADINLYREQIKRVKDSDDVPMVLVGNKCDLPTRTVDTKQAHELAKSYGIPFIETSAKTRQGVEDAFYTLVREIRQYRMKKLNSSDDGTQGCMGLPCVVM
NRAS Q61K, sequence (P62937 whole entry): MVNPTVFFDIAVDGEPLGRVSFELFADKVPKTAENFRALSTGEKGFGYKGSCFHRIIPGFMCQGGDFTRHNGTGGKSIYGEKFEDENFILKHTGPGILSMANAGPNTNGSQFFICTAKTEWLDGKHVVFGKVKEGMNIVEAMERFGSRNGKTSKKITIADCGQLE

As for `C=CC(=O)N1CCOC2(CCN(C(=O)N(C)[C@H](C(=O)N[C@H]3Cc4cccc(c4)-c4ccc5c(c4)c(c(-c4cccnc4[C@H](C)OC)n5CC(F)(F)F)CC(C)(C)COC(=O)C4CCCN(N4)C3=O)C(C)C)CC2)C1` (stereo partly drawn) [Example A608], the pIC50 with NCI-H358 (K-Ras G12C) was 7.00 to 8.00; on NRAS Q61K, 6.00 to 7.00. The pEC50 in experiment [1] is greater than 5.30.

As to `C=CC(=O)N1CC[C@@H](N(C)C(=O)N(C)[C@H](C(=O)N[C@H]2Cc3nc(cs3)-c3ccc4c(c3)c(c(-c3cccnc3[C@H](C)OC)n4CC(F)(F)F)CC(C)(C)COC(=O)[C@@H]3CCCN(N3)C2=O)C(C)C)C1` (atropisomer, axis not shown) [Example A728], the pIC50 is 7.00 to 8.00 in the experiment with NCI-H358 (K-Ras G12C) and 6.00 to 7.00 on NRAS Q61K. Moreover, the pEC50 in experiment [1] is greater than 5.30.

Take `C=CS(=O)(=O)N1CC[C@H](C(=O)N(C)[C@H](C(=O)N[C@H]2Cc3nc(cs3)-c3ccc4c(c3)c(c(-c3cncnc3)n4CC)CC(C)(C)COC(=O)[C@@H]3CCCN(N3)C2=O)C(C)C)C1` [Example A170]: the negative-log IC50 (pIC50) in the experiment with NCI-H358 (K-Ras G12C) is 6.00 to 7.00; on NRAS Q61K it was less than 5.00. The negative logarithm of the EC50 (pEC50) in experiment [1] is greater than 5.30.

Turning to `C=CC(=O)N1CCOC2(CCN(C(=O)N(C)[C@H](C(=O)N[C@H]3Cc4cc(CF)cc(c4)-c4ccc5c(c4)c(c(-c4cccnc4[C@H](C)OC)n5CC(F)(F)F)CC(C)(C)COC(=O)C4CCCN(N4)C3=O)C(C)C)CC2)C1` (stereo partly drawn) [Example A605], the pIC50 in the experiment on NCI-H358 (K-Ras G12C) was 7.00 to 8.00; on NRAS Q61K, 6.00 to 7.00. Further, the pEC50 in experiment [1] is greater than 5.30.

`CCn1c(-c2cccnc2[C@H](C)OC)c2c3cc(ccc31)-c1cccc(c1)C[C@H](NC(=O)[C@@H](CN1CC[C@]3(CCN(C(=O)C#C[C@H]4COCCN4C)C3)C1=O)C(C)C)C(=O)N1CCCC(N1)C(=O)OCC(C)(C)C2` (stereo partly drawn) [Example A592]: the figures for the pIC50 in the experiment with NCI-H358 (K-Ras G12C) and at NRAS Q61K were greater than 8.00 and less than 5.00, respectively. For the same molecule, the pEC50 in experiment [1] is greater than 5.30.

With `C=CC(=O)N1CC[C@H](C(=O)N(C)[C@H](C(=O)N[C@H]2Cc3cc(O)cc(c3)-c3ccc4c(c3)c(c(-c3cccnc3)n4C3CC3)CC(C)(C)COC(=O)[C@@H]3CCCN(N3)C2=O)C(C)C)C1` [Example A160], the results for the pIC50 with NCI-H358 (K-Ras G12C) and on NRAS Q61K were 6.00 to 7.00 and less than 5.00, respectively. In addition, in experiment [1], the negative-log EC50 (pEC50) was greater than 5.30.

Take `C=CC(=O)N(C)C1CCN(C(=O)N(C)[C@H](C(=O)N[C@H]2Cc3nc(cs3)-c3ccc4c(c3)c(c(-c3cccnc3[C@H](C)OC)n4CC)CC(C)(C)COC(=O)[C@@H]3CCCN(N3)C2=O)C(C)C)C1` (stereo partly drawn) [Example A384]: the pIC50 was greater than 8.00 in the experiment with NCI-H358 (K-Ras G12C) and 7.00 to 8.00 at NRAS Q61K. In addition, the pEC50 in experiment [1] was greater than 5.30.

With `CCn1c(-c2cccnc2[C@H](C)OC)c2c3cc(ccc31)-c1csc(n1)C[C@H](NC(=O)[C@H](C(C)C)N(C)C(=O)N1CC(N(C)C(=O)C#CC(C)(C)N3CCC3)C1)C(=O)N1CCC[C@H](N1)C(=O)OCC(C)(C)C2` [Example A379], the pIC50 in the experiment with NCI-H358 (K-Ras G12C) is greater than 8.00; on NRAS Q61K it was 6.00 to 7.00. Further, the negative logarithm of the EC50 (pEC50) in experiment [1] was greater than 5.30.

For the molecule `C=CC(=O)N1CCO[C@H]2CN(C(=O)N(C)[C@H](C(=O)N[C@H]3Cc4cccc(c4)-c4ccc5c(c4)c(c(-c4cccnc4[C@H](C)OC)n5CC)CC(C)(C)COC(=O)C4CCCN(N4)C3=O)C(C)C)C[C@H]21` (stereo partly drawn) [Example A610], the results for the pIC50 with NCI-H358 (K-Ras G12C) and at NRAS Q61K were greater than 8.00 and 6.00 to 7.00, respectively. Moreover, the negative logarithm of the EC50 (pEC50) in experiment [1] is greater than 5.30.

In the case of `CCn1c(-c2cccnc2[C@H](C)OC)c2c3cc(ccc31)N1CCO[C@@H](C[C@H](NC(=O)[C@H](C(C)C)N(C)C(=O)[C@@]3(F)CCN(C(=O)C#CC(C)(C)N4CCC4)C3)C(=O)N3CCC[C@H](N3)C(=O)OCC(C)(C)C2)C1` [Example A726], the figures for the pIC50 with NCI-H358 (K-Ras G12C) and on NRAS Q61K were greater than 8.00 and less than 5.00, respectively. In addition, the negative logarithm of the EC50 (pEC50) in experiment [1] is greater than 5.30.

Consider `C=CC(=O)N1CC(OC[C@H](C(=O)N[C@H]2Cc3cc(F)cc(c3)-c3ccc4c(c3)c(c(-c3cccnc3[C@H](C)OC)n4CC)CC(C)(C)COC(=O)[C@@H]3CCCN(N3)C2=O)C(C)C)C1` (atropisomer, axis not shown) [Example A725], for which the pIC50 in the experiment with NCI-H358 (K-Ras G12C) was 7.00 to 8.00; at NRAS Q61K, 5.00 to 6.00. In experiment [1], the negative logarithm of the EC50 (pEC50) was greater than 5.30.

In the case of `C=CC(=O)N1CCO[C@H]2CN(C(=O)N(C)[C@H](C(=O)N[C@H]3CN4CCC=C(C4)c4ccc5c(c4)c(c(-c4cccnc4[C@H](C)OC)n5CC)CC(C)(C)COC(=O)[C@@H]4CCCN(N4)C3=O)C(C)C)C[C@H]21` [Example A552], the results for the pIC50 with NCI-H358 (K-Ras G12C) and on NRAS Q61K were greater than 8.00 and 5.00 to 6.00, respectively. Besides, in experiment [1], the pEC50 is greater than 5.30.

As for `C=CC(=O)N1CC[C@H](C(=O)N(C)[C@H](C(=O)N[C@H]2Cc3cc(O)cc(c3)-c3ccc4c(c3)c(c(-c3cc(C)cnc3[C@H](C)OC)n4CC)CC(C)(C)COC(=O)[C@@H]3CCCN(N3)C2=O)C(C)C)C1` [Example A167], the negative-log IC50 (pIC50) in the experiment with NCI-H358 (K-Ras G12C) was 7.00 to 8.00; on NRAS Q61K, 6.00 to 7.00. The negative logarithm of the EC50 (pEC50) in experiment [1] is greater than 5.30.

As to `CCn1c(-c2cccnc2[C@H](C)OC)c2c3cc(ccc31)-c1cccc(c1)C[C@H](NC(=O)[C@@H](COC1CN(C(=O)C#C[C@@H]3COCCN3C)C1)C(C)C)C(=O)N1CCC[C@H](N1)C(=O)OCC(C)(C)C2` (atropisomer, axis not shown) [Example A648], the pIC50 was 7.00 to 8.00 with NCI-H358 (K-Ras G12C) and less than 5.00 on NRAS Q61K. In experiment [1], the negative-log EC50 (pEC50) is greater than 5.30.
